Tested on: uptake of gentamicin into the mouse kidneys
Assay: Gentamicin uptake in mouse kidneys following i.p. administration of the compound
Assay type: in vivo
Details: for Effect of the inhibitors on the uptake of gentamicin into the mouse kidneys: 3 mg of inhibitor intraperitoneally in mice, as in Example 1 (FIG. 6), ranked among six inhibitors tested
Method: The effect of a compound, 2-[4-(2-aminoethyl)piperazin-1-yl]ethylamine (Aldrich, D2,340-8, lot 06028BO-332), according to the invention was tested in vivo. Gentamicin uptake in mouse kidneys following intraperitoneal (i.p.) administration of the compound was measured.
For normal application of radioactive gentamicin the following was performed: I.p. injection of 50 micrograms per kg of tritiated gentamicin with or without 3 mg of the inhibitor per mouse.
For competition of clinical doses of gentamicin 50 micrograms/kg of tritiated gentamicin plus 5 mg/kg of cold gentamicin (clinical dose) were injected in admixture with 3 mg total of 2-[4-(2-aminoethyl)piperazin-1-yl]ethylamine per mouse. A control received gentamicin only.
In this experiment 3 mg of the inhibitors 3-methylamino-1-(4-methylpiperazino)-2-propanole, 4-piperazinoaniline, piperazin-2-one-HCl, 2-[4-(2-aminoethyl)piperazin-1-yl]ethylamine, piperazine anhydrous, and 0.5 mg of 1-(3-chlorophenyl)piperazine diHCl (m-CPP), respectively, were administered intraperitoneally in mice (see FIG. 6) as described in Example 1. The effect of the inhibitors on the uptake of gentamicin into the mouse kidneys was determined by means of the assay described in Example 1.

| Structure (SMILES) | Effect of the inhibitors on the uptake of gentamicin into the mouse kidneys | Inhibition (of gentamicin uptake in mouse kidneys) compared to the control (i.p., 50 micrograms/kg tritiated gentamicin plus 5 mg/kg cold gentamicin (clinical dose) in admixture with 3 mg total of compound per mouse, control received gentamicin only) [%] |
| --- | --- | --- |
| C1CNCCN1 [piperazine anhydrous] | strongest gentamicin inhibitors |  |
| Cl.O=C1CNCCN1 [piperazin-2-one-HCl] | strongest gentamicin inhibitors |  |
| NCCN1CCN(CCN)CC1 [2-[4-(2-aminoethyl)piperazin-1-yl]ethylamine] | strongest gentamicin inhibitors | 40 |

Source: US20070004727A1, “Use of compounds for the prevention of drug-induced cell toxicity” (Reception ApS c/o Ostysk Innovation A/S, priority 2003, published 2007)
